Experimental data: ChEMBL document CHEMBL4732205, “Structure-based optimization identified novel furyl-containing 2,4-diarylaminopyrimidine analogues as ALK/ROS1 dual inhibitors with anti-mutation effects” (Eur J Med Chem, 2021)
Active and inactive are the calls of the source. The calls are words filed in the database; no cut-off is given here.

Assays:
MCF7 = test: Antiproliferative activity against human MCF7 cells assessed as reduction in cell growth incubated for 72 hrs by MTT assay; type: functional, cell-based; conditions: MCF7, 72 h
KARPAS-299 = test: Antiproliferative activity against human KARPAS-299 cells assessed as reduction in cell growth incubated for 72 hrs by MTT assay; type: functional, cell-based; conditions: KARPAS-299, 72 h
NCI-H2228 [1] = test: Antiproliferative activity against human NCI-H2228 cells assessed as reduction in cell growth incubated for 72 hrs by MTT assay; type: functional, cell-based; conditions: NCI-H2228, 72 h
A549 = test: Antiproliferative activity against human A549 cells assessed as reduction in cell growth incubated for 72 hrs by MTT assay; type: functional, cell-based; conditions: A549, 72 h
[2] = molecular target: Epidermal growth factor receptor (Homo sapiens, UniProt P00533); test: Inhibition of recombinant human N-terminal GST-tagged EGFR (669 to 1210 residues) expressed in baculovirus expression system using Srctide as substrate incubated for 1 hr by mobility shift assay
[3] = molecular target: T1, ALK tyrosine kinase receptor (Homo sapiens, UniProt Q9UM73); test: Inhibition of recombinant human N-terminal GST-tagged ALK (1058 to 1620 residues) expressed in baculovirus expression system using Srctide as substrate incubated for 1 hr by mobility shift assay
[4] = molecular target: ALK tyrosine kinase receptor (Homo sapiens, UniProt Q9UM73, L1196M); test: Inhibition of recombinant human N-terminal GST-tagged ALK L1196M mutant (1058 to 1620 residues) expressed in baculovirus expression system using Srctide as substrate incubated for 1 hr by mobility shift assay
[5] = molecular target: Proto-oncogene tyrosine-protein kinase ROS (Homo sapiens, UniProt P08922); test: Inhibition of recombinant human N-terminal GST-tagged ROS1 (1883 to 2347 residues) expressed in baculovirus expression system using IRS1 as substrate incubated for 1 hr by mobility shift assay
[6] = molecular target: ALK tyrosine kinase receptor (Homo sapiens, UniProt Q9UM73, G1202R); test: Inhibition of recombinant human N-terminal GST-tagged ALK G1202R mutant (1058 to 1620 residues) expressed in baculovirus expression system using Srctide as substrate incubated for 1 hr by mobility shift assay
[7] = molecular target: T1, ALK tyrosine kinase receptor; test: Inhibition of ALK in human NCI-H2228 cells assessed as reduction in ALK phosphorylation incubated for 24 hrs by Western blot analysis; type: cell-based
Target sequence in this assay (Q9UM73 19-1620 limits assumed): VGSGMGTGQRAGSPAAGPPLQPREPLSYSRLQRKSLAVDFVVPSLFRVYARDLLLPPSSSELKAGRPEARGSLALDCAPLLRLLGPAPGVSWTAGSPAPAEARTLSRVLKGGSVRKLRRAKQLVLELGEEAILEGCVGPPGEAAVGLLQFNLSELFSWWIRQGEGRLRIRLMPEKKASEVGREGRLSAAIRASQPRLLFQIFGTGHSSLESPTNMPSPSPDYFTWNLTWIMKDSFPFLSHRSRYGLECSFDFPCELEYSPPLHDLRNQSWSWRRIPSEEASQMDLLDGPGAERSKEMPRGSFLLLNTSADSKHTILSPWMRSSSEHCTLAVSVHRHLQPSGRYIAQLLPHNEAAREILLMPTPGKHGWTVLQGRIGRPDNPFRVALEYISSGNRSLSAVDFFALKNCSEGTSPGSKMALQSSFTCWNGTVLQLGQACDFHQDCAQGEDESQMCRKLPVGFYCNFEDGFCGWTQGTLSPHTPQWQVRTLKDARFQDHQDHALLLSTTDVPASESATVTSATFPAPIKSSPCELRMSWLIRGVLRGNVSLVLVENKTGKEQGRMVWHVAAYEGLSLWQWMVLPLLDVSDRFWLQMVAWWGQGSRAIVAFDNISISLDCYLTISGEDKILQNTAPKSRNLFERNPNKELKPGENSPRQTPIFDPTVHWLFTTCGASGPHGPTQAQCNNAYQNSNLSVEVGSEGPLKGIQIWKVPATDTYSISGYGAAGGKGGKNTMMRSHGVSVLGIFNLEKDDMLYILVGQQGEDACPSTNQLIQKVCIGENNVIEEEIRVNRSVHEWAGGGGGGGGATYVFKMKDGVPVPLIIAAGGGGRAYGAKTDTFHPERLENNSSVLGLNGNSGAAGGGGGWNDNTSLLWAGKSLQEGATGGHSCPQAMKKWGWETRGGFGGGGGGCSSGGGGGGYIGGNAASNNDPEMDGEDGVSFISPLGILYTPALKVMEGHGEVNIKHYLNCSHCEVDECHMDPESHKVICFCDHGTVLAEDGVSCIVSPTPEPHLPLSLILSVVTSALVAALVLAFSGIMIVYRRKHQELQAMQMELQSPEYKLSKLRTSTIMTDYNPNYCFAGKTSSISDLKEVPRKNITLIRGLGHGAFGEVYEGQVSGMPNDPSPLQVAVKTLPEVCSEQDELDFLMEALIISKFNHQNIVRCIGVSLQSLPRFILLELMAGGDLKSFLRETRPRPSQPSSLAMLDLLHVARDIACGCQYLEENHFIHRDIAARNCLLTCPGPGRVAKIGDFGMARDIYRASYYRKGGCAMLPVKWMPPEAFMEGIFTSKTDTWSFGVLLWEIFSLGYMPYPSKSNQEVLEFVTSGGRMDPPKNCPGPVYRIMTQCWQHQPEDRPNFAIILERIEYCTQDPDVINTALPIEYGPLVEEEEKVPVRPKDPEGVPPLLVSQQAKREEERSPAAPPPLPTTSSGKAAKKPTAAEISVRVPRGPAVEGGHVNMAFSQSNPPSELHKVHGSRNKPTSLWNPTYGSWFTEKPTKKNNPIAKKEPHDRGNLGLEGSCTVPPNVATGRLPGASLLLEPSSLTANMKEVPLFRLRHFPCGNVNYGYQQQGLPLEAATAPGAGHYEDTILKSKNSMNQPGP

[8] = molecular target: T1, ALK tyrosine kinase receptor; test: Inhibition of ALK in human NCI-H2228 cells assessed as reduction in Akt expression at 25 to 100 nM incubated for 24 hrs by Western blot analysis; type: cell-based; conditions: dose 25-100 nM
Target sequence in this assay (Q9UM73 19-1620 limits assumed): as above

NCI-H2228 [9] = test: Effect on ALK expression in human NCI-H2228 cells at 25 to 100 nM incubated for 24 hrs by Western blot analysis; type: functional, cell-based; conditions: dose 25-100 nM
NCI-H2228 [10] = test: Induction of apoptosis in human NCI-H2228 cells assessed as morphological changes at 30 nM incubated for 48 hrs by AO-EB staining based fluorescence microscopic analysis; type: functional, cell-based
[11] = system: ALK tyrosine kinase receptor (Homo sapiens), Q9UM73 [L1196M]; test: Potency index, ratio of IC50 of ceritinib to IC50 of compound for inhibition of recombinant human N-terminal GST-tagged ALK L1196M mutant (1058 to 1620 residues) expressed in baculovirus expression system using Srctide as substrate incubated for 1 hr by mobility shift assay
[12] = molecular target: T1, ALK tyrosine kinase receptor; test: Inhibition of ALK in human NCI-H2228 cells assessed as reduction in ERK expression at 25 to 100 nM incubated for 24 hrs by Western blot analysis; type: cell-based; conditions: dose 25-100 nM
Target sequence in this assay (Q9UM73 19-1620 limits assumed): as above

[13] = molecular target: T1, ALK tyrosine kinase receptor; test: Inhibition of ALK in human NCI-H2228 cells assessed as reduction in Akt phosphorylation at 25 to 100 nM incubated for 24 hrs by Western blot analysis; type: cell-based; conditions: dose 25-100 nM
Target sequence in this assay (Q9UM73 19-1620 limits assumed): as above

NCI-H2228 [14] = test: Induction of apoptosis in human NCI-H2228 cells assessed as morphological changes incubated for 48 hrs by Hoechst-33258 staining based fluorescence microscopic analysis; type: functional, cell-based; conditions: dose 30-120 nM
[15] = molecular target: T1, ALK tyrosine kinase receptor; test: Inhibition of ALK in human NCI-H2228 cells assessed as reduction in ALK phosphorylation at 100 nM incubated for 24 hrs by Western blot analysis relative to control; type: cell-based
Target sequence in this assay (Q9UM73 19-1620 limits assumed): as above

[16] = molecular target: T1, ALK tyrosine kinase receptor; test: Inhibition of ALK in human NCI-H2228 cells assessed as reduction in Erk phosphorylation at 25 to 100 nM incubated for 24 hrs by Western blot analysis; type: cell-based; conditions: dose 25-100 nM
Target sequence in this assay (Q9UM73 19-1620 limits assumed): as above

[17] = system: ALK tyrosine kinase receptor (Homo sapiens), Q9UM73 [G1202R]; test: Potency index, ratio of IC50 of ceritinib to IC50 of compound for inhibition of recombinant human N-terminal GST-tagged ALK G1202R mutant (1058 to 1620 residues) expressed in baculovirus expression system using Srctide as substrate incubated for 1 hr by mobility shift assay
NCI-H2228 [18] = test: Induction of apoptosis in human NCI-H2228 cells assessed as early apoptotic cells by observing morphological changes of cell at 120 nM incubated for 48 hrs by AO-EB staining based fluorescence microscopic analysis; type: functional

Sequence of ALK tyrosine kinase receptor (Homo sapiens, UniProt Q9UM73, G1202R) (Q9UM73 19-1620 G1202R limits assumed): as the sequence (Q9UM73 19-1620 limits assumed) above, with G1184R counted along it
Sequence of Proto-oncogene tyrosine-protein kinase ROS (P08922 whole entry, the tested form may be a part): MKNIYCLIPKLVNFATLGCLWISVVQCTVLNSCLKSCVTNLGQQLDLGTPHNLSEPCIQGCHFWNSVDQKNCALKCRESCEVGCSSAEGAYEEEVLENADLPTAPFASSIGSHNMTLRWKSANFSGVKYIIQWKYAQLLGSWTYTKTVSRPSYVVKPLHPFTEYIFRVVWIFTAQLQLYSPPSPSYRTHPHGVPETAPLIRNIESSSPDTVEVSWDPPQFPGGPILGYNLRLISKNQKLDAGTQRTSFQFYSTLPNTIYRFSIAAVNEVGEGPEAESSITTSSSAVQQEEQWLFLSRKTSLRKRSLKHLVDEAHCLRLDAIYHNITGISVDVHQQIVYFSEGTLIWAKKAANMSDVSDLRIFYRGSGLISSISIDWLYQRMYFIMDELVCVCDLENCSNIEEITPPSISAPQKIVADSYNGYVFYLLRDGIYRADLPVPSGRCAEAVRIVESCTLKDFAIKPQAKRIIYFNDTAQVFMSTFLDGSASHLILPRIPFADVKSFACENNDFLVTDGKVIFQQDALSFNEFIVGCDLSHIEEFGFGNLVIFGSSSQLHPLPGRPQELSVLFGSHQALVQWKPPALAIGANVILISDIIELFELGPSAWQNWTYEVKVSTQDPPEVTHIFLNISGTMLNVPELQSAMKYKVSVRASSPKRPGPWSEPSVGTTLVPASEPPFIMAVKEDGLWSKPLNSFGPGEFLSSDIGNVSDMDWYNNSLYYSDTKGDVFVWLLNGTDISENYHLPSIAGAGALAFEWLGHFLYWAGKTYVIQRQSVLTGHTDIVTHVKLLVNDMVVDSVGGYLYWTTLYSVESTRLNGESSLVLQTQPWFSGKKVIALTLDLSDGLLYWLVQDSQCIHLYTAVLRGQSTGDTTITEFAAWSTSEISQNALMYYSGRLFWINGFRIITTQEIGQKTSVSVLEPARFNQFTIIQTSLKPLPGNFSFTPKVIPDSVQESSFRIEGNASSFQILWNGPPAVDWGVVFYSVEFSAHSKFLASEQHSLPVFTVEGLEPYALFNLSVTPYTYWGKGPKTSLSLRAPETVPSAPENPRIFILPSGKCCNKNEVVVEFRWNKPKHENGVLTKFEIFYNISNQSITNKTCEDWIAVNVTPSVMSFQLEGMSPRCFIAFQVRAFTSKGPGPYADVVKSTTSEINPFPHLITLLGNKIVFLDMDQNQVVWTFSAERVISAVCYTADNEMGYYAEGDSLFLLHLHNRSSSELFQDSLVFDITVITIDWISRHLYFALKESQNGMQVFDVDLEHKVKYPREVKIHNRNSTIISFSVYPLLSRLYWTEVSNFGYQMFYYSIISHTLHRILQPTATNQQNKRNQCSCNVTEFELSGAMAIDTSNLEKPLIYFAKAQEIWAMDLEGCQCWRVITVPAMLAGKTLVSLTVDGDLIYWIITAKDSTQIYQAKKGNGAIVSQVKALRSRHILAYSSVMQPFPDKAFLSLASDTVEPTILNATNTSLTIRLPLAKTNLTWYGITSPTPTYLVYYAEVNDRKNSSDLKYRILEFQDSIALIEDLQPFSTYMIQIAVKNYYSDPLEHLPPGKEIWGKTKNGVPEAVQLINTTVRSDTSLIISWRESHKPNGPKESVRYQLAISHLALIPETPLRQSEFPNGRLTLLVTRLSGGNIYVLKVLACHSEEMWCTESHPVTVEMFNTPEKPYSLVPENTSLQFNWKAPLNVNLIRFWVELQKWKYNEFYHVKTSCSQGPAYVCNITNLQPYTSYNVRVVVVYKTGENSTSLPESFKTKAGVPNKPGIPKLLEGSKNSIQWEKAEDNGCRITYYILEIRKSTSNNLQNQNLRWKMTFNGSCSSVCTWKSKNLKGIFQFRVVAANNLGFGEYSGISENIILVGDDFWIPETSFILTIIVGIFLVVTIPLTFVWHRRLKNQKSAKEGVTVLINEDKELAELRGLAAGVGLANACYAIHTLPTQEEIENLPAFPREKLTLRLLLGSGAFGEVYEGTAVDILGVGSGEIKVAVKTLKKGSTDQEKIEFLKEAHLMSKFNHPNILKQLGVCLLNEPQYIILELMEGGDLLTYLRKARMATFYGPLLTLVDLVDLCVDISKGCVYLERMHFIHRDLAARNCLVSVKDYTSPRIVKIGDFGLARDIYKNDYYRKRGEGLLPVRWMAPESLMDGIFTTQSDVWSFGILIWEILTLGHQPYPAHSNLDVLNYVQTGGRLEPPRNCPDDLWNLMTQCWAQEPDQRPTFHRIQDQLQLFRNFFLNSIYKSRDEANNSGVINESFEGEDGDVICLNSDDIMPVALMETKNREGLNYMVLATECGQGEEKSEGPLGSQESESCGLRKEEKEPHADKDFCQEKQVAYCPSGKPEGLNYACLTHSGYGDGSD

Row | Structure (SMILES) | IC50 (MCF7) [nM] | IC50 (KARPAS-299) [nM] | IC50 (NCI-H2228 [1]) [nM] | IC50 (A549) [nM] | also measured
1 | COc1cc(SCc2ccc(CN3CCC(C)CC3)o2)ccc1Nc1ncc(Cl)c(Nc2ccccc2NS(C)(=O)=O)n1 | > 10000 | 120 | 200 | > 10000 | –
2 | COc1cc(NCC2CCCO2)ccc1Nc1ncc(Cl)c(Nc2ccccc2NS(C)(=O)=O)n1 (stereo not drawn) | > 10000 | 250 | 140 | 800 | IC50 [2]: > 1000 nM; IC50 [3]: 3.2 nM; IC50 [4]: 5.8 nM; IC50 [5]: 4.6 nM; IC50 [6]: 4.5 nM
3 | COc1cc(NCc2ccc(CN3CCN(C)CC3)o2)ccc1Nc1ncc(Cl)c(Nc2ccccc2NS(C)(=O)=O)n1 | > 10000 | 360 | 480 | > 10000 | –
4 | COc1cc(SCc2ccc(CN(C)C)o2)ccc1Nc1ncc(Cl)c(Nc2ccccc2NS(C)(=O)=O)n1 | > 10000 | 20 | 110 | > 10000 | inhibition [7]: Dose-dependent effect; inhibition [8]: Active; Activity (NCI-H2228 [9]): Active; Activity (NCI-H2228 [10]): Active; IC50 [2]: > 1000 nM; Ratio IC50 [11]: 5; inhibition [12]: Active; IC50 [3]: 2.8 nM; inhibition [13]: Active; IC50 [4]: 2.6 nM; Activity (NCI-H2228 [14]): Dose-dependent effect; inhibition [15]: 100%; IC50 [5]: 2.3 nM; IC50 [6]: 3.8 nM; inhibition [16]: Active; Ratio IC50 [17]: 5; Activity (NCI-H2228 [18]): Active
5 | COc1cc(OCC2CCCO2)ccc1Nc1ncc(Cl)c(Nc2ccccc2NS(C)(=O)=O)n1 (stereo not drawn) | > 10000 | 190 | 90 | > 10000 | IC50 [2]: > 1000 nM; IC50 [3]: 3 nM; IC50 [4]: 3.3 nM; IC50 [5]: 3.7 nM; IC50 [6]: 2.1 nM
6 | COc1cc(NCc2ccco2)ccc1Nc1ncc(Cl)c(Nc2ccccc2NS(C)(=O)=O)n1 | > 10000 | 980 | 1580 | > 10000 | –

Now from value to molecule, other results behind:

Row | IC50 (MCF7) [nM] | IC50 (KARPAS-299) [nM] | IC50 (NCI-H2228 [1]) [nM] | IC50 (A549) [nM] | Structure (SMILES) | also measured
7 | > 10000 | 180 | 340 | > 10000 | CCN(CC)Cc1ccc(CSc2ccc(Nc3ncc(Cl)c(Nc4ccccc4NS(C)(=O)=O)n3)c(OC)c2)o1 | –
8 | > 10000 | 350 | 570 | 3560 | CCN(CC)Cc1ccc(CNc2ccc(Nc3ncc(Cl)c(Nc4ccccc4NS(C)(=O)=O)n3)c(OC)c2)o1 | –
9 | > 10000 | 400 | 720 | > 10000 | CCN1CCN(Cc2ccc(CNc3ccc(Nc4ncc(Cl)c(Nc5ccccc5NS(C)(=O)=O)n4)c(OC)c3)o2)CC1 | –
10 | > 10000 | 870 | 990 | > 10000 | COc1cc(NCc2ccc(CN3CCN(CCO)CC3)o2)ccc1Nc1ncc(Cl)c(Nc2ccccc2NS(C)(=O)=O)n1 | –
11 | > 10000 | 140 | 480 | > 10000 | COc1cc(SCc2ccc(CN3CCN(C)CC3)o2)ccc1Nc1ncc(Cl)c(Nc2ccccc2NS(C)(=O)=O)n1 | –
12 | > 10000 | 150 | 430 | 920 | COc1cc(SCc2ccc(CN3CCOCC3)o2)ccc1Nc1ncc(Cl)c(Nc2ccccc2NS(C)(=O)=O)n1 | –
13 | > 10000 | 2470 | 3540 | > 10000 | COc1cc(NCc2ccco2)ccc1Nc1ncc(Cl)c(Nc2ccccc2NC(C)=O)n1 | –
14 | > 10000 | 230 | 320 | > 10000 | COc1cc(NCc2ccc(CN3CCOCC3)o2)ccc1Nc1ncc(Cl)c(Nc2ccccc2NS(C)(=O)=O)n1 | –
